SMILES strings stand for the structures. Counter-ions that a name gives are not always drawn.

The experiment deals with human CXCR3-A receptor (Homo sapiens (Human), UniProt P49682). As to the kind of experiment: 125I-CXCL10 competition radioligand binding assay.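 Note: One-hour incubation of membranes with tracer, bound radioligand separated by glass fibre filtration, IC50 derived from four-parameter nonlinear fit of competition curves.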 As to conditions: displacement of 125I-CXCL10 from membranes of CHO cells expressing human recombinant CXCR3-A. (In general: Displacement assays read how much labelled ligand stays bound in the presence of the test substance.)
human CXCR3-A receptor, sequence (P49682 whole entry): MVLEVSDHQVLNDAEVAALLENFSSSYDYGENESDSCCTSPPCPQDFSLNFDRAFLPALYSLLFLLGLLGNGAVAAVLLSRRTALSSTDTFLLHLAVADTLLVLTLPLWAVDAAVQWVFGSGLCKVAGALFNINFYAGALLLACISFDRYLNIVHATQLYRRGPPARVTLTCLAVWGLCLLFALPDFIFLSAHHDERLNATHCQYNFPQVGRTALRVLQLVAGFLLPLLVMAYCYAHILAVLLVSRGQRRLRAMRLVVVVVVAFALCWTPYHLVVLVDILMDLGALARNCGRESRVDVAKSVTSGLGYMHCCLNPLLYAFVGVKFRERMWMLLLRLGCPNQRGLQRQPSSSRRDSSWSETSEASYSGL
As a reminder, the IC50 is the midpoint of a concentration-inhibition curve. On to `Cc1cc(CN(CC(C)C)C(CC(=O)O)c2ccc3c(c2)CCO3)ccc1OCCn1c(=O)ccn(C)c1=O` (stereo not drawn) [Example 158, 3-(2,3-Dihydro-benzofuran-5-yl)-3-(isobutyl-{3-methyl-4-[2-(3-methyl-2,6-dioxo-3,6-dihydro-2H-pyrimidin-1-yl)-ethoxy]-benzyl}-amino)-propionic acid], for which the IC50 turned out to be 75 nM.

On to `CCCN(Cc1ccc(OCCn2c(=O)ccn(C)c2=O)c(OC)c1)C(CC(=O)O)c1ccc(Cl)cc1Cl` (stereo not drawn) [Example 159, 3-(2,4-Dichloro-phenyl)-3-({3-methoxy-4-[2-(3-methyl-2,6-dioxo-3,6-dihydro-2H-pyrimidin-1-yl)-ethoxy]-benzyl}-propyl-amino)-propionic acid], for which the IC50 amounted to 354 nM.

Consider `Cc1cc(CN(CC2CCCC2)C(CC(=O)O)c2ccc3c(c2)CCO3)ccc1OCCn1c(=O)ccn(C)c1=O` (stereo not drawn) [Example 160, 3-(Cyclopentylmethyl-{3-methyl-4-[2-(3-methyl-2,6-dioxo-3,6-dihydro-2H-pyrimidin-1-yl)-ethoxy]-benzyl}-amino)-3-(2,3-dihydro-benzofuran-5-yl)-propionic acid], for which the IC50 worked out at 81 nM.

With `CCCCN(Cc1ccc(OCCn2c(=O)ccn(C)c2=O)c(C)c1)C(CC(=O)O)c1ccc2c(c1)CCO2` (stereo not drawn) [Example 161, 3-(Butyl-{3-methyl-4-[2-(3-methyl-2,6-dioxo-3,6-dihydro-2H-pyrimidin-1-yl)-ethoxy]-benzyl}-amino)-3-(2,3-dihydro-benzofuran-5-yl)-propionic acid], the 50% inhibitory concentration (IC50) came to 76 nM.

With `Cc1cc(CN(CC2CC2)C(CC(=O)O)c2ccc(Cl)cc2Cl)ccc1OCCN1C(=O)CCC1=O` (stereo not drawn) [Example 163, 3-(Cyclopropylmethyl-{4-[2-(2,5-dioxo-pyrrolidin-1-yl)-ethoxy]-3-methyl-benzyl}-amino)-3-(2,4-dichloro-phenyl)-propionic acid], the IC50 amounted to 162 nM.

Take `CCCCN(Cc1ccc(OCCN2C(=O)CCC2=O)c(C)c1)C(CC(=O)O)c1ccc(Cl)cc1Cl` (stereo not drawn) [Example 164, 3-(Butyl-{4-[2-(2,5-dioxo-pyrrolidin-1-yl)-ethoxy]-3-methyl-benzyl}-amino)-3-(2,4-dichloro-phenyl)-propionic acid]: the half-inhibitory concentration (IC50) was found to be 133 nM.

Take `COc1cc(CN(Cc2ccc(F)cc2)C(CC(=O)O)c2ccc(Cl)cc2)ccc1OCCN1C(=O)CCC1=O` (stereo not drawn) [Example 165, 3-(4-Chloro-phenyl)-3-[{4-[2-(2,5-dioxo-pyrrolidin-1-yl)-ethoxy]-3-methoxy-benzyl}-(4-fluoro-benzyl)-amino]-propionic acid; hydrochloride]: the IC50 amounted to 75 nM.

`Cc1cc(CN(CCC(F)(F)F)C(CC(=O)O)c2ccc(Cl)c(Cl)c2)ccc1OCCN1C(=O)CCC1=O` (stereo not drawn) [Example 167, 3-(3,4-Dichloro-phenyl)-3-[{4-[2-(2,5-dioxo-pyrrolidin-1-yl)-ethoxy]-3-methyl-benzyl}-(3,3,3-trifluoro-propyl)-amino]-propionic acid]: the IC50 came to 2440 nM.

Consider `CCCCN(Cc1ccc(OCCN2C(=O)CCC2=O)c(OC)c1)C1c2ccc(Cl)cc2CC1C(=O)O` (stereo not drawn) [Example 168, 1-(Butyl-{4-[2-(2,5-dioxo-pyrrolidin-1-yl)-ethoxy]-3-methoxy-benzyl}-amino)-5-chloro-indan-2-carboxylic acid], for which the IC50 is 237 nM.

With `COc1cc(CN(CC2CCCCC2)C2c3ccc(Cl)cc3CC2C(=O)O)ccc1OCCN1C(=O)CCC1=O` (stereo not drawn) [Example 169, 5-Chloro-1-(cyclohexylmethyl-{4-[2-(2,5-dioxo-pyrrolidin-1-yl)-ethoxy]-3-methoxy-benzyl}-amino)-indan-2-carboxylic acid], the half-maximal inhibitory concentration (IC50) came out at 407 nM.

`COc1cc(CN(CC(C)C)C2c3ccc(Cl)cc3CC2C(=O)O)ccc1OCCN1C(=O)CCC1=O` (stereo not drawn) [Example 170, 5-Chloro-1-({4-[2-(2,5-dioxo-pyrrolidin-1-yl)-ethoxy]-3-methoxy-benzyl}-isobutyl-amino)-indan-2-carboxylic acid]: the IC50 was 345 nM.

For `COc1cc(CN(CC2CCCC2)C2c3ccc(Cl)cc3CC2C(=O)O)ccc1OCCN1C(=O)CCC1=O` (stereo not drawn) [Example 171, 5-Chloro-1-(cyclopentylmethyl-{4-[2-(2,5-dioxo-pyrrolidin-1-yl)-ethoxy]-3-methoxy-benzyl}-amino)-indan-2-carboxylic acid], the IC50 was 389 nM.

Take `CCCCN(Cc1ccc(OCCN2C(=O)CCC2=O)c(C)c1)C1c2ccc(Cl)cc2CC1C(=O)O` (stereo not drawn) [Example 173, 1-(Butyl-{4-[2-(2,5-dioxo-pyrrolidin-1-yl)-ethoxy]-3-methyl-benzyl}-amino)-5-chloro-indan-2-carboxylic acid]: the IC50 was found to be 603 nM.

For `Cc1cc(CN(CC(C)C)C2c3ccc(Cl)cc3CC2C(=O)O)ccc1OCCN1C(=O)CCC1=O` (stereo not drawn) [Example 174, 5-Chloro-1-({4-[2-(2,5-dioxo-pyrrolidin-1-yl)-ethoxy]-3-methyl-benzyl}-isobutyl-amino)-indan-2-carboxylic acid], the IC50 stood at 800 nM.

As to `CCN(Cc1ccc(OCCN2C(=O)CCC2=O)c(C)c1)C(c1ccc(Cl)cc1)C(C)C(=O)O` (stereo not drawn) [Example 175, 3-(4-Chloro-phenyl)-3-({4-[2-(2,5-dioxo-pyrrolidin-1-yl)-ethoxy]-3-methyl-benzyl}-ethyl-amino)-2-methyl-propionic acid], the IC50 worked out at 266 nM.

With `Cc1cc(CN(C)C(c2ccc(Cl)cc2)C(C)C(=O)O)ccc1OCCN1C(=O)CCC1=O` (stereo not drawn) [Example 176], the IC50 is 5520 nM.

On to `CCCCN(Cc1ccc(CCCN2C(=O)CCC2=O)c(C)c1)C(CC(=O)O)c1ccc2c(c1)CCO2` (stereo not drawn) [Example 177, 3-(Butyl-{4-[3-(2,5-dioxo-pyrrolidin-1-yl)-propyl]-3-methyl-benzyl}-amino)-3-(2,3-dihydro-benzofuran-5-yl)-propionic acid], for which the IC50 is 255 nM.

Consider `CCCN(Cc1ccc(OCCN2C(=O)CCC2=O)c(C)c1)C(CC(=O)O)c1ccc(C)cc1` (stereo not drawn) [Example 178, 3-({4-[2-(2,5-Dioxo-pyrrolidin-1-yl)-ethoxy]-3-methyl-benzyl}-propyl-amino)-3-p-tolyl-propionic acid], for which the IC50 worked out at 183 nM.

With `COc1cc(CN(CC2CCCC2)C(CC(=O)O)c2ccc(C)cc2)ccc1OCCN1C(=O)CCC1=O` (stereo not drawn) [Example 179, 3-(Cyclopentylmethyl-{4-[2-(2,5-dioxo-pyrrolidin-1-yl)-ethoxy]-3-methoxy-benzyl}-amino)-3-p-tolyl-propionic acid], the 50% inhibitory concentration (IC50) was found to be 91 nM.

For `COc1cc(CN(CC2CCCC2)C(CC(=O)O)c2ccc(C(F)(F)F)cc2)ccc1OCCN1C(=O)CCC1=O` (stereo not drawn) [Example 180, 3-(Cyclopentylmethyl-{4-[2-(2,5-dioxo-pyrrolidin-1-yl)-ethoxy]-3-methoxy-benzyl}-amino)-3-(4-trifluoromethyl-phenyl)-propionic acid], the IC50 is 198 nM.

`COc1cc(CN(CC2CCCCC2)C(CC(=O)O)c2ccc(C(F)(F)F)cc2)ccc1OCCN1C(=O)CCC1=O` (stereo not drawn) [Example 181, 3-(Cyclohexylmethyl-{4-[2-(2,5-dioxo-pyrrolidin-1-yl)-ethoxy]-3-methoxy-benzyl}-amino)-3-(4-trifluoromethyl-phenyl)-propionic acid]: the IC50 is 507 nM.

In the case of `CCN(Cc1ccc(OCCN2C(=O)CCC2=O)c(OC)c1)C(C(=O)O)c1ccc(Cl)cc1` (stereo not drawn) [Example 182, (4-Chloro-phenyl)-({4-[2-(2,5-dioxo-pyrrolidin-1-yl)-ethoxy]-3-methoxy-benzyl}-ethyl-amino)-acetic acid], the concentration for half-maximal inhibition (IC50) amounted to 3900 nM.

On to `CCCCN(Cc1ccc(OCCN2C(=O)CCC2=O)c(OC)c1)C(C(=O)O)c1ccc(Cl)cc1` (stereo not drawn) [Example 184], for which the half-maximal inhibitory concentration (IC50) was 336 nM.

In the case of `COc1cc(CN(CC2CC2)C(c2ccc(Cl)cc2)C(C)C(=O)O)ccc1OCCN1C(=O)CCC1=O` (stereo not drawn) [Example 187, 3-(4-Chloro-phenyl)-3-(cyclopropylmethyl-{4-[2-(2,5-dioxo-pyrrolidin-1-yl)-ethoxy]-3-methoxy-benzyl}-amino)-2-methyl-propionic acid], the half-inhibitory concentration (IC50) was 71 nM.

Consider `COc1cc(CN(CC2CCCC2)C(CC(=O)O)c2ccc(Cl)cc2)ccc1SCCN1C(=O)CCC1=O` (stereo not drawn) [Example 188, 3-(4-Chloro-phenyl)-3-(cyclopentylmethyl-{4-[2-(2,5-dioxo-pyrrolidin-1-yl)-ethylsulfanyl]-3-methoxy-benzyl}-amino)-propionic acid], for which the IC50 is 31 nM.

For `COc1cc(CN(CC2CCCC2)C(CC(=O)O)c2ccc(Cl)c(F)c2)ccc1SCCN1C(=O)CCC1=O` (stereo not drawn) [Example 190, 3-(4-Chloro-3-fluoro-phenyl)-3-(cyclopentylmethyl-{4-[2-(2,5-dioxo-pyrrolidin-1-yl)-ethylsulfanyl]-3-methoxy-benzyl}-amino)-propionic acid], the IC50 was determined as 62 nM.

As for `COc1cc(CN(CC2CC2)C(CC(=O)O)c2ccc(Cl)c(Cl)c2)ccc1SCCN1C(=O)CCC1=O` (stereo not drawn) [Example 191, 3-(Cyclopropylmethyl-{4-[2-(2,5-dioxo-pyrrolidin-1-yl)-ethylsulfanyl]-3-methoxy-benzyl}-amino)-3-(3,4-dichloro-phenyl)-propionic acid], the IC50 turned out to be 20 nM.

As to `CCCN(Cc1ccc(SCCN2C(=O)CCC2=O)c(OC)c1)C(CC(=O)O)c1ccc(Cl)c(Cl)c1` (stereo not drawn) [Example 192, 3-(3,4-Dichloro-phenyl)-3-({4-[2-(2,5-dioxo-pyrrolidin-1-yl)-ethylsulfanyl]-3-methoxy-benzyl}-propyl-amino)-propionic acid], the IC50 came out at 55 nM.

For the compound `COc1cc(CN(CC(C)C)C(CC(=O)O)c2ccc(Cl)c(Cl)c2)ccc1SCCN1C(=O)CCC1=O` (stereo not drawn) [Example 193, 3-(3,4-Dichloro-phenyl)-3-({4-[2-(2,5-dioxo-pyrrolidin-1-yl)-ethylsulfanyl]-3-methoxy-benzyl}-isobutyl-amino)-propionic acid], the 50% inhibitory concentration (IC50) stood at 72 nM.

As to `CCCN(Cc1ccc(OCCN2C(=O)CCC2=O)c(C)c1)C(c1ccc(Cl)cc1)C(C)C(=O)O` (stereo not drawn) [Example 194, 3-(4-Chloro-phenyl)-3-({4-[2-(2,5-dioxo-pyrrolidin-1-yl)-ethoxy]-3-methyl-benzyl}-propyl-amino)-2-methyl-propionic acid], the IC50 was determined as 272 nM.

The record behind these values is patent publication US9447038B2 (SANOFI, priority 2012, dated 2016).
